In patent publication US10548894B2, “Combination therapy” (Array BioPharma Inc., priority 2013, dated 2020) one finds IC50 data, which are given here for one compound.

Experiment in all cases: CellTiter-Glo proliferation assay 72 hrs, with or without FGF2
Assay type in all cases: cell-based

The test system of one assay is CL-34. How it is done: (§1) All cell lines were purchased from ATTC (SK-MEL-5, SK-MEL-24, UACC-62, COLO 741, COLO-800, WM-266-4, Colo205, LS411N, SW 1417), ECACC (MDST8), DSMZ (CL-34) and NCI (LOX IMVI). […] Cell lines were cultured in 37° C. and 5% CO2 incubator and expanded in T-75 flasks. In all cases cells were thawed from frozen stocks, expanded through passage using 1:3 dilutions, counted and assessed for viability using a ViCell counter (Beckman-Coulter), prior to plating in 96-well or 6-well plates. To split and expand cell lines, cells were dislodged from flasks using 0.25% Trypsin-EDTA (GIBCO, Catalog number 25200). All cell lines were determined to be free of mycoplasma contamination as determined by a PCR detection methodology performed at Idexx Radii (Columbia, Mo., USA) and correctly identified by detection of a panel of SNPs.
(§2) The Compound of Formula (I) and Compound H dissolved in 100% DMSO (Cellgro, catalog number 25-290-CQC) at concentrations of 10 mM and stored at −20° C. until use. Compounds were arrayed in 2 ml deep 96-well plates (Greiner bio-one, catalog number 780271) serially diluted 3-fold seven times yielding concentration ranges from 22 nM to 16200 nM. Recombinant Human FGF basic was purchased from R&D system (Catalog number 233-FB), and reconstituted at 50 μg/ml in sterile PBS. It was used at a fixed concentration 100 ng/ml in all experiments.
(§3) For CellTiter-Glo™ assays, cells were dispensed into tissue culture treated 96-well plates (Costar, catalog number 3904) with a final volume of 80 μL of medium and at density of 3000 cells per well. 12 to 24 hrs after plating, 20 μL of each compound dilution series were transferred to plates containing the cells, resulting in compound concentration ranges of 2700 nM to 3.7 nM by 3-fold dilutions and a final DMSO concentration of 0.16%. The total volume in each well was […]. Plates were incubated for 72 hrs and the effects of compounds on cell proliferation was determined using the CellTiter-Glo™ Luminescent Cell Viability Assay (CTG, Promega) and a Victor™ X4 plate reader (Perkin Elmer). For real-time growth assays cells were seeded into xCELLigence E-plates (Roche catalogue number 05232368001) at a density of 4000 cells per well in a total of 90 μl of media and 24 hrs after plating, 11 μl of media with or without compound was added to the wells. 2-4 replicate wells were plated for all cell lines and treatment groups with the exception of LGX818+FGF2 treated COLO 741 cells (N=1). Where indicated final concentrations of compounds and growth factor were 1 uM for Compound H, 100 ng/ml for FGF2, and either 100 nM (SK-MEL-5) or 500 nM (COLO 741) for the Compound of Formula (I). Cells were continuously monitored every two hours for seven days with the xCELLigence real-time impedance based cell analyzer. Impedance was measured using the electrodes on the E-plates, with increasing surface area coverage of cells creating greater electrode impedance. […] In all cases cell index values were normalized to a timepoint immediately following the addition of compound.
(§4) To determine whether FGFRs can rescue a subset of BRAFV600E mutant melanoma cell lines treated with the Compound of Formula (I), its anti-proliferative effects were examined in eleven T1799 mutant BRAF cell lines either in the presence or absence of the FGFR-activating ligand FGF2. […] Thus, the presence of FGF2 is able to rescue a set of BRAFV600E melanoma-derived cell lines from the anti-proliferative effects of the B-Raf inhibitor of Formula (I). Furthermore, similar effects are also observed in BRAFV600E mutant cell lines derived from CRC tumors.
(§5) Mutant (mut) and wildtype (wt) status was determined from published data. […] PTEN mut designations represent a summary call based on mutation, gene copy number, and mRNA expression information for the PTEN gene.

The subject of the next assay is MDST8. To be noted: MDST8 (V600K). The procedure: as §1, §2, §3, §4, §5
A further assay concerns COLO 205. The settings on record: Homo sapiens. The procedure: as §1, §2, §3, §4, §5
The next assay deals with UACC-62. To be noted: Homo sapiens. How it is done: as §1, §2, §3, §4, §5
The next assay relates to SW1417. The settings on record: Homo sapiens. How it is done: as §1, §2, §3, §4, §5
A further assay relates to SK-MEL-24. To be noted: Homo sapiens. How it is done:
as §1, §2, §3, §4, §5

For a further assay, the system named is WM-266-4. To be noted: Homo sapiens, WM-266-4 (V600D). How it is done: as §1, §2, §3, §4, §5
In another assay the test system is COLO-800. The settings on record: Homo sapiens. How it is done: as §1, §2, §3, §4, §5
Another assay concerns LS411N. To be noted: Homo sapiens, LS-411N. How it is done: as §1, §2, §3, §4, §5
Another assay deals with COLO 741. To be noted: Homo sapiens. The procedure: as §1, §2, §3, §4, §5
The subject of a further assay is SK-MEL-5. To be noted: Homo sapiens. The procedure:
as §1, §2, §3, §4, §5

[1] abbreviates: with 100 ng/ml FGF2, read-out: LGX818 + FGF2 IC50.
Where [2] appears, read: without FGF2, read-out: LGX818 IC50.

Like-named read-outs stand apart in the source and are kept apart here.

The IC50 is the point on the concentration scale where inhibition reaches its midpoint. Consider `COC(=O)N[C@@H](C)CNc1nccc(-c2cn(C(C)C)nc2-c2cc(Cl)cc(NS(C)(=O)=O)c2F)n1` [Compound of Formula (I)], for which the IC50 in the assay on CL-34 (CL-34, without FGF2, read-out: LGX818 IC50) is 38 nM; with CL-34 (read-out: LGX818 + FGF2 IC50) it was 730 nM; in the assay with MDST8 (setting [1]), at least 10000 nM; with MDST8 (setting [2]) it was 141 nM; with COLO 205 (Colo 205, with 100 ng/ml FGF2, read-out: LGX818 + FGF2 IC50), 5 nM; with COLO 205 (Colo 205, without FGF2, read-out: LGX818 IC50), 4 nM. In addition, the IC50 in the assay on UACC-62 (UACC-62, with 100 ng/ml FGF2, read-out: LGX818 + FGF2 IC50) was found to be 4 nM; with UACC-62 (UACC-62, without FGF2, read-out: LGX818 IC50), 2 nM; with SW1417 (SW1417, with 100 ng/ml FGF2, read-out: LGX818 + FGF2 IC50), 364 nM; with SW1417 (SW1417, without FGF2, read-out: LGX818 IC50) it was 165 nM; with SK-MEL-24 (SK-MEL-24, with 100 ng/ml FGF2, read-out: LGX818 + FGF2 IC50), 369 nM; in the assay with SK-MEL-24 (SK-MEL-24, without FGF2, read-out: LGX818 IC50), 470 nM. In addition, the IC50 was 4 nM in the assay with WM-266-4 (setting [1]); 3 nM in the assay on WM-266-4 (setting [2]); 12 nM with COLO-800 (COLO-800, with 100 ng/ml FGF2, read-out: LGX818 + FGF2 IC50); 9 nM in the assay with COLO-800 (COLO-800, without FGF2, read-out: LGX818 IC50); at least 9230 nM in the assay with LS411N (setting [1]); 185 nM with LS411N (setting [2]). Besides, the half-maximal inhibitory concentration (IC50) in the assay with COLO 741 (COLO 741, with 100 ng/ml FGF2, read-out: LGX818 + FGF2 IC50) was 2650 nM; with COLO 741 (COLO 741, without FGF2, read-out: LGX818 IC50), 53 nM; in the assay on SK-MEL-5 (SK-MEL-5, with 100 ng/ml FGF2, read-out: LGX818 + FGF2 IC50), over 1000 nM; in the assay with SK-MEL-5 (SK-MEL-5, without FGF2, read-out: LGX818 IC50), 15 nM.
